13 molecules from patent US20250250230A1, “HETEROCYCLIC COMPOUND” (TAKEDA PHARMACEUTICAL COMPANY LIMITED, priority 2022, published 2025) can be followed below.

The assay deals with T1, human orexin type 2 receptor (Homo sapiens, UniProt O43614).
T1 construct: expressed in transfected cells
T1 sequence (O43614 1-444): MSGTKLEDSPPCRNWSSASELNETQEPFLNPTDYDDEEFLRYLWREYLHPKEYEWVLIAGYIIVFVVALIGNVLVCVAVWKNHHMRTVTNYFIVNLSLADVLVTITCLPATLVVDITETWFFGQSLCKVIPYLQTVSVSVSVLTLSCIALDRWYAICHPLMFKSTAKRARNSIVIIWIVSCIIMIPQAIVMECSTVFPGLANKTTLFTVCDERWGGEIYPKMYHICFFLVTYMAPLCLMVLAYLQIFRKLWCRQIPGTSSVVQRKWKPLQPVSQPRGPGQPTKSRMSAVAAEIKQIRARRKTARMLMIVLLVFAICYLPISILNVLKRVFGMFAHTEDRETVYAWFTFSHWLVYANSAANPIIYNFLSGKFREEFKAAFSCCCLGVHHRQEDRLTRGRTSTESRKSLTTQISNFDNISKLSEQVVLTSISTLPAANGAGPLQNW
In words: Measurement of orexin type 2 receptor agonist activity (calcium fluorescence, Fluo-4 AM, FDSS). Format: cell-based. The note with it: test compound 3 μM; CHO cells expressing human OX2 receptor; DMSO = 0%, orexin A (human) = 100%. The text has this: To obtain a cell clone stably expressing human orexin type 2 receptor, human orexin type 2 receptor cDNA was inserted into pcDNA3.1(+) plasmid vector (Invitrogen), and a plasmid DNA for expression of human orexin type 2 receptor (pcDNA3.1(+)/hOX2R) was cloned. The plasmid DNA was introduced into CHO-K1 cell by an electroporation method, and human orexin type 2 receptor expressing clone cells were obtained by limiting dilution method by using G418 drug resistance as a selection marker.
CHO cells forcibly expressing human OX2 receptor were seeded in each well of 384 well black transparent bottom plate (BD Falcon) at 10,000 cells/well, and cultured for one day in a 5% CO2 incubator at 37° C. After removal of the medium in the cell plate, assay buffer A containing a calcium indicator (HBSS (Thermo Fisher Scientific), 20 mM HEPES (Thermo Fisher Scientific), 0.1% BSA (Sigma-Aldrich), 2.5 μg/mL Fluo-4 AM (DOJINDO Chemical), 0.08% Pluronic F127 (DOJINDO Chemical), 1.25 mM probenecid (DOJINDO Chemical)) was added at 30 μL/well. The plate was stood for 30 min in a 5% CO2 incubator at 37° C., and further stood at room temperature for 30 min. A test compound prepared by diluting with assay buffer B (HBSS, 20 mM HEPES, 0.1% BSA) was added at 10 μL/well, and the fluorescence value was measured by FDSSμCELL (Hamamatsu Photonics K.K.) every one sec for 1 min, and thereafter every two sec for […]. The activity (%) of the test compound was calculated assuming that variation in the fluorescence value when DMSO was added instead of the test compound was 0%, and variation in the fluorescence value when orexin A (human) (PEPTIDE INSTITUTE, INC.) was added at the final concentration of 10 nM was 100%.

For `CC1(C)C(C(=O)N2CC[C@H](NS(C)(=O)=O)C2)C1c1ccccc1-c1c(F)cccc1F` (mixture of isomers) [Example 287, a mixture of N-{(3S)-1-[(1R,2R)-2-(2′,6′-difluoro[1,1′-biphenyl]-2-yl)-2,2-dimethylcyclopropane-1-carbonyl]pyrrolidin-3-yl}methanesulfonamide and N-{(3S)-1-[(1S,3S)-3-(2′,6′-difluoro[1,1′-biphenyl]-2-yl)-2,2-dimethylcyclopropane-1-carbonyl]pyrrolidin-3-yl}methanesulfonamide], the “OX2R agonist activity (3 μM, %)” value is listed as 96%.
`CC1(C)C(C(=O)N2CCC[C@H](NS(C)(=O)=O)CC2)C1c1ccccc1-c1c(F)cccc1F` (mixture of isomers) [Example 288, a mixture of N-{(4S)-1-[(1R,2R)-2-(2′,6′-difluoro[1,1′-biphenyl]-2-yl)-2,2-dimethylcyclopropane-1-carbonyl]azepan-4-yl}methanesulfonamide and N-{(4S)-1-[(1S,3S)-3-(2′,6′-difluoro[1,1′-biphenyl]-2-yl)-2,2-dimethylcyclopropane-1-carbonyl]azepan-4-yl}methanesulfonamide]: the “OX2R agonist activity (3 μM, %)” value amounted to 96%.
Under `CS(=O)(=O)N[C@H]1CCCN(C(=O)C2CC2(F)c2ccccc2-c2c(F)cccc2F)CC1` (mixture of isomers) [Example 290, a mixture of N-{(4S)-1-[(1R,2R)-2-(2′,6′-difluoro[1,1′-biphenyl]-2-yl)-2-fluorocyclopropane-1-carbonyl]azepan-4-yl}methanesulfonamide and N-{(4S)-1-[(1S,2S)-2-(2′,6′-difluoro[1,1′-biphenyl]-2-yl)-2-fluorocyclopropane-1-carbonyl]azepan-4-yl}methanesulfonamide] stands 98%; under `CS(=O)(=O)N[C@H]1CCCCN(C(=O)C2CC2(F)c2ccccc2-c2c(F)cccc2F)C1` (mixture of isomers) [Example 291, a mixture of N-{(3S)-1-[(1R,2R)-2-(2′,6′-difluoro[1,1′-biphenyl]-2-yl)-2-fluorocyclopropane-1-carbonyl]azepan-3-yl}methanesulfonamide and N-{(3S)-1-[(1S,2S)-2-(2′,6′-difluoro[1,1′-biphenyl]-2-yl)-2-fluorocyclopropane-1-carbonyl]azepan-3-yl}methanesulfonamide], 93%; under `CC1C(C(=O)N2CC[C@H](NS(C)(=O)=O)C2)C1c1ccccc1-c1c(F)cccc1F` (mixture of isomers) [Example 303, a mixture of N-{(3S)-1-[(1R,2R,3S)-2-(2′,6′-difluoro[1,1′-biphenyl]-2-yl)-3-methylcyclopropane-1-carbonyl]pyrrolidin-3-yl}methanesulfonamide and N-{(3S)-1-[(1S,2S,3R)-2-(2′,6′-difluoro[1,1′-biphenyl]-2-yl)-3-methylcyclopropane-1-carbonyl]pyrrolidin-3-yl}methanesulfonamide], 99%.
Under `CC1C(C(=O)N2CCC[C@H](NS(C)(=O)=O)C2)C1c1ccccc1-c1c(F)cccc1F` (mixture of isomers) [Example 305, a mixture of N-{(3S)-1-[(1R,2R,3S)-2-(2′,6′-difluoro[1,1′-biphenyl]-2-yl)-3-methylcyclopropane-1-carbonyl]piperidin-3-yl}methanesulfonamide and N-{(3S)-1-[(1S,2S,3R)-2-(2′,6′-difluoro[1,1′-biphenyl]-2-yl)-3-methylcyclopropane-1-carbonyl]piperidin-3-yl}methanesulfonamide] stands 85%.
Under `CC1C(C(=O)N2CCC[C@H](NS(C)(=O)=O)CC2)C1c1ccccc1-c1c(F)cccc1F` (mixture of isomers) [Example 308, a mixture of N-{(4S)-1-[(1R,2R,3S)-2-(2′,6′-difluoro[1,1′-biphenyl]-2-yl)-3-methylcyclopropane-1-carbonyl]azepan-4-yl}methanesulfonamide and N-{(4S)-1-[(1S,2S,3R)-2-(2′,6′-difluoro[1,1′-biphenyl]-2-yl)-3-methylcyclopropane-1-carbonyl]azepan-4-yl}methanesulfonamide] stands 100%.
Take `CC1(NS(C)(=O)=O)CCCN(C(=O)[C@@H]2C[C@H]2c2ccccc2-c2c(F)cccc2F)C1` (mixture of isomers) [Example 310, a mixture of N-{(3R)-1-[(1R,2R)-2-(2′,6′-difluoro[1,1′-biphenyl]-2-yl)cyclopropane-1-carbonyl]-3-methylpiperidin-3-yl}methanesulfonamide and N-{(3S)-1-[(1R,2R)-2-(2′,6′-difluoro[1,1′-biphenyl]-2-yl)cyclopropane-1-carbonyl]-3-methylpiperidin-3-yl}methanesulfonamide]: the “OX2R agonist activity (3 μM, %)” value turned out to be 100%.
Regarding `CC1C(C(=O)N2CCCC[C@H](NS(C)(=O)=O)C2)C1c1ccccc1-c1c(F)cccc1F` (mixture of isomers) [Example 311, a mixture of N-{(3S)-1-[(1R,2R,3S)-2-(2′,6′-difluoro[1,1′-biphenyl]-2-yl)-3-methylcyclopropane-1-carbonyl]azepan-3-yl}methanesulfonamide and N-{(3S)-1-[(1S,2S,3R)-2-(2′,6′-difluoro[1,1′-biphenyl]-2-yl)-3-methylcyclopropane-1-carbonyl]azepan-3-yl}methanesulfonamide], the “OX2R agonist activity (3 μM, %)” value came out at 98%.
For `CC1(NS(C)(=O)=O)CCCN(C(=O)[C@@H]2C[C@H]2c2ccccc2-c2c(F)cccc2F)CC1` (mixture of isomers) [Example 313, a mixture of N-{(4R)-1-[(1R,2R)-2-(2′,6′-difluoro[1,1′-biphenyl]-2-yl)cyclopropane-1-carbonyl]-4-methylazepan-4-yl}methanesulfonamide and N-{(4S)-1-[(1R,2R)-2-(2′,6′-difluoro[1,1′-biphenyl]-2-yl)cyclopropane-1-carbonyl]-4-methylazepan-4-yl}methanesulfonamide] the value was 97%; for `CS(=O)(=O)N[C@H]1CCN(C(=O)C2C(c3ccccc3-c3c(F)cccc3F)C2(F)F)C1` (mixture of isomers) [Example 320, a mixture of N-{(3S)-1-[(1R,2R)-2-(2′,6′-difluoro[1,1′-biphenyl]-2-yl)-2,2-difluorocyclopropane-1-carbonyl]pyrrolidin-3-yl}methanesulfonamide and N-{(3S)-1-[(1S,3S)-3-(2′,6′-difluoro[1,1′-biphenyl]-2-yl)-2,2-difluorocyclopropane-1-carbonyl]pyrrolidin-3-yl}methanesulfonamide], 101%; for `CC(O)[C@@H]1CN(C(=O)[C@@H]2C[C@@]2(F)c2ccccc2-c2c(F)cccc2F)[C@H]1CNS(C)(=O)=O` (mixture of isomers) [Example 404, a mixture of N-{[(2R,3R)-1-[(1S,2S)-2-(2′,6′-difluoro[1,1′-biphenyl]-2-yl)-2-fluorocyclopropane-1-carbonyl]-3-[(1R)-1-hydroxyethyl]azetidin-2-yl]methyl}methanesulfonamide and N-{[(2R,3R)-1-[(1S,2S)-2-(2′,6′-difluoro[1,1′-biphenyl]-2-yl)-2-fluorocyclopropane-1-carbonyl]-3-[(1S)-1-hydroxyethyl]azetidin-2-yl]methyl}methanesulfonamide], 95%.
For `Cc1noc(C2(NS(C)(=O)=O)CCN(C(=O)[C@@H]3C[C@@]3(F)c3ccccc3-c3c(F)cccc3F)C2)n1` (mixture of isomers) [Example 421, a mixture of N-[(3R)-1-[(1S,2S)-2-(2′,6′-difluoro[1,1′-biphenyl]-2-yl)-2-fluorocyclopropane-1-carbonyl]-3-(3-methyl-1,2,4-oxadiazol-5-yl)pyrrolidin-3-yl]methanesulfonamide and N-[(3S)-1-[(1S,2S)-2-(2′,6′-difluoro[1,1′-biphenyl]-2-yl)-2-fluorocyclopropane-1-carbonyl]-3-(3-methyl-1,2,4-oxadiazol-5-yl)pyrrolidin-3-yl]methanesulfonamide] the value was 88%.
